Results reported in ChEMBL document CHEMBL1777680, “Part 1: N-alkylated glycines as potent α2δ ligands” (Bioorg Med Chem Lett, 2011).

Test system: not listed separately
Test: Volume of distribution in iv dosed rat
Assay type: ADME, organism-based
Settings: in vivo
Compound `O=C(O)CNCCSc1ccc2ccccc2c1` has a Vd of 0.6 L/kg.

Molecular target: not listed separately
Test: Displacement of [3H]Gabapentin from alpha2delta calcium channel in pig brain tissue homogenates after 45 mins by scintillation counting
Assay type: tissue-based, Sus scrofa
Settings: not given
Work on `O=C(O)CNCCSc1ccc2ccccc2c1` yielded an IC50 of 22 nM.
For `NCc1ccc(SCCNCC(=O)O)cc1`, the IC50 was 900 nM.
With `C[C@H](CNCC(=O)O)Oc1ccc(Br)cc1` the IC50 was 6670 nM.
`N#Cc1ccc(SCCNCC(=O)O)cc1` showed an IC50 of 680 nM.
Compound `CCC(CNCC(=O)O)Oc1ccc(Br)cc1` (racemic) has an IC50 of 214 nM.
In the case of `O=C(O)CNCCSc1ccc2ccncc2c1`, the IC50 is reported as 83 nM.
With `O=C(O)CNCCSc1ccc(F)cc1` the IC50 was 2500 nM.
In the case of `O=C(O)CNCCSc1cccc(Br)c1`, the IC50 is reported as 428 nM.
Work on `O=C(O)CNCCOc1ccc(Cl)cc1` yielded an IC50 of 6590 nM.
`CCC(CNCC(=O)O)Oc1cccc(Cl)c1` (racemic) gave an IC50 of 40 nM.
For `O=C(O)CNCCSc1ccc(Br)cc1`, the IC50 was 59 nM.
`C[C@@H](CNCC(=O)O)Oc1ccc(Br)cc1` gave an IC50 of 441 nM.
Compound `CC(CNCC(=O)O)Oc1ccc(Cl)cc1` (racemic) has an IC50 of 523 nM.
Work on `O=C(O)CNCCSc1ccccc1` yielded an IC50 of 5400 nM.
Compound `O=C(O)CNCCSc1ccc(Cl)cc1` has an IC50 of 195 nM.

Test system: not listed separately
Test: Half life in iv dosed rat
Assay type: ADME, organism-based
Settings: in vivo
In the case of `O=C(O)CNCCSc1ccc2ccccc2c1`, the half-life is reported as 66 min.

Test system: not listed separately
Test: Tmax in iv dosed rat
Assay type: ADME, organism-based
Settings: in vivo
`O=C(O)CNCCSc1ccc2ccccc2c1` gave a Tmax of 15 min.

Test system: Rattus norvegicus
Test: Unbound clearance in iv dosed rat
Assay type: ADME, organism-based
Settings: in vivo
In the case of `O=C(O)CNCCSc1ccc2ccccc2c1`, the CL free is reported as 23 mL/min/kg.
